The test concerns the target human P2X3 receptor (Homo sapiens (Human), UniProt P56373). Kind of test: P2X3 receptor inhibition, ATP-evoked Fluo-3 calcium fluorescence (FDSS 3000). The conditions noted are these: C6BU-1 cell transfected with human P2X3 receptor gene; ATP-evoked Fluo-3 fluorescence. In kind it is cell-based. The procedure, abridged:
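C6BU-1 cells stably transfected with human P2X3, loaded with 4 μM Fluo-3-AM for 1 h at 37 °C in HEPES buffer pH 7.5 with probenecid. Compound added 5 min before 40 nM ATP solution; fluorescence followed 3 min. IC50 from ratio of peak post-ATP to baseline fluorescence.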

Broadly, the IC50 is the concentration needed to halve the response being measured.

human P2X3 receptor, sequence (P56373 whole entry): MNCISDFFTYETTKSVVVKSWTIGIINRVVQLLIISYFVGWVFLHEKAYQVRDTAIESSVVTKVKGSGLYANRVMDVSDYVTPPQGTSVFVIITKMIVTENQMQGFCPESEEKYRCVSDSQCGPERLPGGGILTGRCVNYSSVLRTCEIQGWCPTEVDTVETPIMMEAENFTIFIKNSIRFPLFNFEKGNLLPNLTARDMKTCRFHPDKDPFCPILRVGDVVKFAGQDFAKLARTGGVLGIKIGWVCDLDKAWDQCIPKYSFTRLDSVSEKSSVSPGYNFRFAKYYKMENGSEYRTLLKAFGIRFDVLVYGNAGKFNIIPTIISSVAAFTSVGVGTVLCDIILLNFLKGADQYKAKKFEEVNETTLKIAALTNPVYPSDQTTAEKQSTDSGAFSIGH

`Cc1cc(-c2ccc(N3C(=O)C(O)=C(C(=O)CC(C)C)C3c3ccccc3OC(F)F)cc2)cs1` (stereo not shown) [Compound I-377]: the IC50 amounted to 148 nM. Next, `COCCOc1ncccc1C1c2c(C(C)C)n[nH]c2C(=O)N1c1ccc(-c2noc(C)n2)cc1` (stereo not shown) [II-280]: 244 nM; `O=C1C(O)=C(S(=O)(=O)c2ccccc2)C(C2CCCCC2)N1c1ccc(-c2ccon2)cc1` (stereo not shown) [Compound I-482]: 333 nM; `COCCOc1cc(F)ccc1C1C(C(=O)CC(C)C)=C(O)C(=O)N1c1ccc(-c2noc(C)n2)cc1` (stereo not shown) [Compound I-365]: 82 nM. Next, `CCOC(=O)C1c2c(C(C)C)n[nH]c2C(=O)N1c1ccc(-c2ccsc2)cc1` (stereo not shown) [II-183]: 460 nM. Next, `COc1ccc(C(=O)C2=C(O)C(=O)N(c3ccc(C4=NCCS4)cc3)C2c2ccccc2OC)cc1` (stereo not shown) [Compound I-028]: 75 nM. Turning to `COc1ccccc1C1C(C(=O)C(C)(C)C)=C(O)C(=O)N1c1ccc(-c2ccoc2)nc1` (stereo not shown) [Compound I-093], the IC50 came out at 756 nM. Next, `COc1ccc(F)cc1C1C(C(=O)C(C)(C)C)=C(O)C(=O)N1c1ccc(-c2ccon2)cc1` (stereo not shown) [Compound I-021]: 382 nM; `COc1ccccc1C1C(C(=O)CC(C)(C)C)=C(O)C(=O)N1c1ccc(-c2ccon2)cc1` (stereo not shown) [Compound I-072]: 352 nM. Next, `COc1ccccc1C1c2c(C(C)(C)C)n[nH]c2C(=O)N1c1ccc(C(C)=O)cc1` (stereo not shown) [II-155]: 322 nM; `COc1ccccc1C1C(S(C)(=O)=O)=C(O)C(=O)N1c1ccc(-c2ccc(C)o2)cc1` (stereo not shown) [Compound I-468]: 467 nM; `Cc1cc(-c2ccc(N3C(=O)C(O)=C(C(=O)C(C)C)C3c3ccccc3C(=O)N(C)C)cc2)cs1` (stereo not shown) [Compound I-409]: 177 nM.

Turning to `COCc1ccccc1C1C(C(=O)C(C)(C)C)=C(O)C(=O)N1c1ccc(-c2noc(C)n2)cc1` (stereo not shown) [Compound I-051], the IC50 is 277 nM. Next, `CCNC(=O)c1ncccc1C1C(C(=O)CC(C)C)=C(O)C(=O)N1c1ccc(-c2ccc(C)s2)cc1` (stereo not shown) [Compound I-530]: 237 nM; `COc1ccccc1C1c2c(C(C)C)n[nH]c2CN1C(=O)Nc1ccc(-c2ccsc2)cc1` (stereo not shown) [II-189]: 897 nM; `CCOC(=O)c1ccc(N2C(=O)C(O)=C(C(=O)C(C)(C)C)C2c2ccccc2OC)cc1` (stereo not shown) [Compound I-001]: 32 nM.

Regarding `COc1ncccc1C1c2c(C(C)(C)CO)n[nH]c2C(=O)N1c1ccc(-c2ccco2)cc1` (stereo not shown) [II-111], the IC50 came out at 91 nM.

As to `Cc1ccc(-c2ccc(N3C(=O)C(O)=C(C(=O)C(C)C)C3c3cccnc3OCCCO)cc2)s1` (stereo not shown) [Compound I-568], the IC50 was 66 nM. The value for `COCc1ccccc1C1C(C(=O)CC(C)C)=C(O)C(=O)N1c1ccc(-c2csc(C)c2)cc1` (stereo not shown) [Compound I-376] was 25 nM.

For `COCCOc1cc(F)ccc1C1C(C(=O)CC(C)C)=C(O)C(=O)N1c1ccc(-c2ccoc2)cc1` (stereo not shown) [Compound I-368], the IC50 stood at 16 nM. The value for `COCCOc1ccccc1C1c2c(C(C)(C)C)n[nH]c2C(=O)N1c1ccc(-c2nc(C)no2)cc1` (stereo not shown) [II-024] was 62 nM.

As to `COc1ncccc1C1c2c(C(C)(C)C)n[nH]c2C(=O)N1c1ccc(-c2nccs2)cc1` (stereo not shown) [II-193], the 50% inhibitory concentration (IC50) stood at 195 nM. On to `COCCN(C)C(=O)c1ccccc1C1C(C(=O)CC(C)C)=C(O)C(=O)N1c1ccc(-c2ccc(C)o2)cc1` (stereo not shown) [Compound I-496], for which the IC50 amounted to 55 nM. As for `COc1ccccc1C1c2c(C(C)(CO)CO)n[nH]c2C(=O)N1c1ccc(-c2ccsc2)cc1` (stereo not shown) [II-266], the IC50 stood at 7 nM.

For the compound `COc1ccccc1C1c2c(C(C)C)n[nH]c2C(=O)N1c1ccc(-c2ccsc2)cc1` (stereo not shown) [II-079], the half-maximal inhibitory concentration (IC50) worked out at 11 nM. On to `COCc1ccccc1C1C(C(=O)C(C)C)=C(O)C(=O)N1c1ccc(-c2cccs2)cc1` (stereo not shown) [Compound I-215], for which the IC50 was determined as 13 nM. Next, `CC(C)c1n[nH]c2c1C(c1ccccc1OC(CO)CO)N(c1ccc(-c3ccsc3)cc1)C2=O` (stereo not shown) [II-236]: 5 nM. The value for `CC(C)COc1ccccc1C1C(C(=O)C2CCCC2)=C(O)C(=O)N1c1ccc(-c2ccon2)cc1` (stereo not shown) [Compound I-513] was 65 nM; that for `COCc1ccccc1C1C(C(=O)C(C)C)=C(O)C(=O)N1c1ccc(-c2csc(C)n2)cc1` (stereo not shown) [Compound I-425] was 697 nM. The value for `Cc1ccc(-c2ccc(N3C(=O)C(O)=C(C(=O)C(C)C)C3c3ccccc3OC(C)C)cc2)o1` (stereo not shown) [Compound I-396] was 7 nM. Turning to `CN(C)c1ccccc1C1c2c(C(C)(C)C)n[nH]c2C(=O)N1c1ccc(-c2ccon2)cc1` (stereo not shown) [II-119], the IC50 was 137 nM.

As for `COc1ccccc1C1C(C(=O)C(C)C)=C(O)C(=O)N1c1ccc(-c2ccco2)cc1` (stereo not shown) [Compound I-224], the IC50 was 73 nM. The value for `COC(=O)c1cc(N2C(=O)c3[nH]nc(C(C)C)c3C2c2ccccc2OC)ccc1-c1ccsc1` (stereo not shown) [II-241] was 213 nM; that for `CC(C)(C)c1n[nH]c2c1C(c1ccccc1CO)N(c1ccc(-c3ccon3)cc1)C2=O` (stereo not shown) [II-113] was 838 nM; that for `Cc1cc(-c2ccc(N3C(=O)C(O)=C(C(=O)C(C)C)C3c3ccccc3S(C)(=O)=O)cc2)cs1` (stereo not shown) [Compound I-507] was 101 nM. Next, `Cc1nc(-c2ccc(N3C(=O)C(O)=C(C(=O)CC(C)C)C3c3ccccc3OC(F)(F)F)cc2)no1` (stereo not shown) [Compound I-319]: 222 nM. The value for `COCCCOc1ncccc1C1C(C(=O)C(C)C)=C(O)C(=O)N1c1ccc(-c2csc(C)c2)cc1` (stereo not shown) [Compound I-571] was 60 nM; that for `COCc1ncccc1C1C(C(=O)C(C)C)=C(O)C(=O)N1c1ccc(-c2ccsc2)cc1` (stereo not shown) [Compound I-194] was 63 nM; that for `Cc1nc(-c2ccc(N3C(=O)C(O)=C(C(=O)C(C)C)C3c3ccccc3OC(F)F)cc2)no1` (stereo not shown) [Compound I-313] was 320 nM. `CC(C)C(=O)C1=C(O)C(=O)N(c2ccc(-c3ccsc3)cc2)C1c1cccnc1OCCO` (stereo not shown) [Compound I-176]: the IC50 amounted to 46 nM. Next, `Cc1cc(-c2ccc(N3C(=O)C(O)=C(C(=O)C(C)C)C3c3ccccc3OC(F)(F)F)cc2)cs1` (stereo not shown) [Compound I-322]: 102 nM. The value for `COc1ccccc1C1C(C(=O)C(C)(C)C)=C(O)C(=O)N1c1ccc(SC(F)(F)F)cc1` (stereo not shown) [Compound I-047] was 221 nM; that for `CC(C)C(=O)C1=C(O)C(=O)N(c2ccc(-c3ccsc3)cc2)C1c1cccnc1OCC(N)=O` (stereo not shown) [Compound I-200] was 14 nM; that for `CNC(=O)CCc1ccccc1C1C(C(=O)C(C)C)=C(O)C(=O)N1c1ccc(-c2ccc(C)o2)cc1` (stereo not shown) [Compound I-535] was 49 nM. Next, `COc1ccccc1C1c2c(C(C)(C)CO)n[nH]c2C(=O)N1c1ccc(-c2ccoc2)cc1` (stereo not shown) [II-219]: 14 nM; `COc1ccccc1C1c2c(C(C)(C)C(=O)N(C)C)n[nH]c2C(=O)N1c1ccc(-c2ccsc2)cc1` (stereo not shown) [II-172]: 11 nM. Regarding `COCCOc1ccccc1C1c2c(C(C)(C)C)n[nH]c2C(=O)N1c1ccc(-c2noc(C)n2)cc1` (stereo not shown) [II-025], the IC50 stood at 15 nM. The value for `COCOc1ccccc1C1C(C(=O)CC(C)C)=C(O)C(=O)N1c1ccc(-c2ccc(C)s2)cc1` (stereo not shown) [Compound I-305] was 20 nM. The value for `CNC(=O)c1n[nH]c2c1C(c1ccccc1OC)N(c1ccc(-c3ccsc3)cc1)C2=O` (stereo not shown) [II-181] was 301 nM.
